Measured values as given in article PMC9585939, “Unveiling a family of spiro-β-lactams with anti-HIV and antiplasmodial activity via phosphine-catalyzed [3+2] annulation of 6-alkylidene-penicillanates and allenoates” (Frontiers in Chemistry, 2022).
“Also recorded” adds a separate entry of the source.

How the values were obtained:
[1] = Cellular viability assay (alamarBlue) in TZM-bl cells; format: cell-based; settings: human, 50% cytotoxic concentration
Protocol: Before the antiviral activity screening, all spirocyclopentene-β-lactams were assayed for their in vitro cytotoxic activity (CC50) in TZM-bl cells (Table 4).
TZM-bl cells (AIDS Research and Reference Reagent Program, National Institutes of Health, United States) were cultured in complete growth medium consisting of Dulbecco’s Minimal Essential Medium (DMEM) supplemented with 10% fetal bovine serum (FBS), 100 U/ml of penicillin–streptomycin (Gibco/Invitrogen, United States), 1 mM of sodium pyruvate (Gibco/Invitrogen, United States), 2 mM of L-glutamine (Gibco/Invitrogen, United States), and 1 mM of non-essential amino acids (Gibco/Invitrogen, United States). Cell cultures were maintained at 37°C in 5% CO2.
The in vitro cytotoxicity of test compounds was evaluated in TZM-bl cells using alamarBlue cell viability reagent (Life Technologies, United States), according to the instructions of the manufacturer. The cells were cultured in the presence and absence of serial-fold dilutions of the test compounds. Each dilution of each compound was performed in triplicate wells. Medium controls (only growth medium), cell controls (cells without test compound), and cytotoxicity controls (a compound that kills cells) were employed in each assay.

HIV-1 SG3.1 = assay: microbe, parasite or virus in culture; settings: for anti-HIV activity (in words) / Therapeutic index (CC50/IC50): HIV-1; for inhibition at 25 µg/mL / IC50 / IC90: Human immunodeficiency virus 1, TZM-bl; for inhibition at 25 µg/mL: read-out: MPI (%) 25 μg/mL; for Therapeutic index (CC50/IC50): CC50 in TZM-bl cells; for IC50 / IC90: 48 h; for IC50: read-out: IC50 HIV-1, TZM-bl cells, 48 h; for IC90: read-out: IC90 HIV-1
Source text: The HIV-1 SG3.1 is a reference subtype B strain that uses the CXCR4 coreceptor. It was obtained by transfection of HEK293T cells with pSG3.1 plasmid using jetPRIME transfection reagent (Polyplus-transfection SA, Illkirch, France), according to the instructions of the manufacturer.
Briefly, TZM-bl cells were infected with 200 TCID50 of HIV-1 or HIV-2 in the presence of serial-fold dilutions of the compounds in the growth medium, supplemented with diethylaminoethyl-dextran (DEAE-dextran). After 48 h of infection, luciferase expression was quantified with Pierce Firefly Luc One-Step Glow Assay Kit (ThermoFisher Scientific, Rockford, United States), according to the instructions of the manufacturer. For each compound dilution, the assay was set up in triplicate wells. Virus controls, cell controls, and inhibitors controls (drugs with a known action against each virus) were employed.

With `CC1(C)SC2N(C(=O)C23CC=C(C(=O)Oc2ccccc2)C3C(=O)c2ccccc2)C1C(=O)OC(c1ccccc1)c1ccccc1` (stereo not drawn) [Compound 9a, (1′R,2′R)-Benzhydryl spiro[(2-benzoyl-3-phenoxycarbonylcyclopent-3-ene)-1′,6-penicillanate]] the CC50 [1] was 215 µM, the “anti-HIV activity (in words)” value (HIV-1 SG3.1) was “lack of antiviral activity” and the inhibition at 25 µg/mL (HIV-1 SG3.1) was 0%. For the same compound, the melting point was > 137 °C (dec.).
`CC(C)(C)c1ccc(OC(=O)C2=CCC3(C(=O)N4C(C(=O)OC(c5ccccc5)c5ccccc5)C(C)(C)SC43)C2C(=O)c2ccccc2)cc1` (stereo not shown) [Compound 9b, (1’R,2’R)-Benzhydryl spiro[(2-benzoyl-3-(4-tert-butylphenoxycarbonyl)cyclopent-3-ene)-1’,6-penicillanate]] showed a CC50 [1] of 54.7 µM, an inhibition at 25 µg/mL (HIV-1 SG3.1) of 0% and a melting point of 206.7 to 208.9 °C.
With `COc1cccc(OC(=O)C2=CCC3(C(=O)N4C(C(=O)OC(c5ccccc5)c5ccccc5)C(C)(C)SC43)C2C(=O)c2ccccc2)c1` (stereo not shown) [Compound 9c, (1’R,2’R)-Benzhydryl spiro[(2-benzoyl-3-(3-methoxyphenoxycarbonyl)cyclopent-3-ene)-1’,6-penicillanate]] the CC50 [1] was 58.1 µM, the inhibition at 25 µg/mL (HIV-1 SG3.1) was 0% and the melting point was 67.8 to 69.7 °C.
With `CC1(C)SC2N(C(=O)C23CC=C(C(=O)Oc2ccc4ccccc4c2)C3C(=O)c2ccccc2)C1C(=O)OC(c1ccccc1)c1ccccc1` (stereo not shown) [Compound 9d, (1’R,2’R)-Benzhydryl spiro[(2-benzoyl-3-(2-naphthoxycarbonyl)cyclopent-3-ene)-1’,6-penicillanate]] the CC50 [1] was 38 µM and the inhibition at 25 µg/mL (HIV-1 SG3.1) was 54%.
Compound `CCCCCOC(=O)C1=CCC2(C(=O)N3C(C(=O)OC(c4ccccc4)c4ccccc4)C(C)(C)SC32)C1C(=O)c1ccccc1` (stereo not shown) [Compound 9e, (1’R,2’R)-Benzhydryl spiro[(2-benzoyl-3-pentoxycarbonylcyclopent-3-ene)-1’,6-penicillanate]] has a CC50 [1] of 60.3 µM and an inhibition at 25 µg/mL (HIV-1 SG3.1) of 44%.
For `CC(C)CCOC(=O)C1=CCC2(C(=O)N3C(C(=O)OC(c4ccccc4)c4ccccc4)C(C)(C)SC32)C1C(=O)c1ccccc1` (stereo not shown) [Compound 9f, (1’R,2’R)-Benzhydryl spiro[(2-benzoyl-3-isopentoxycarbonylcyclopent-3-ene)-1’,6-penicillanate]], the CC50 [1] was 53.4 µM and the inhibition at 25 µg/mL (HIV-1 SG3.1) was 21%.
`CC1(C)SC2N(C(=O)C23CC=C(C(=O)OC(c2ccccc2)c2ccccc2)C3C(=O)c2ccccc2)C1C(=O)OC(c1ccccc1)c1ccccc1` (stereo not shown) [Compound 9g, (1’R,2’R)-Benzhydryl spiro[(2-benzoyl-3-benzhydryloxycarbonylcyclopent-3-ene)-1’,6-penicillanate]] showed a CC50 [1] of 45.3 µM, an inhibition at 25 µg/mL (HIV-1 SG3.1) of 0% and a melting point of 83.4 to 85.2 °C.
With `CC1(C)SC2N(C(=O)C23CC=C(C(=O)OCc2ccc([N+](=O)[O-])cc2)C3C(=O)c2ccccc2)C1C(=O)OC(c1ccccc1)c1ccccc1` (stereo not shown) [Compound 9h, (1’R,2’R)-Benzhydryl spiro[(2-benzoyl-3-(4-nitrobenzyloxycarbonyl)cyclopent-3-ene)-1’,6-penicillanate]] the CC50 [1] was 56 µM, the “anti-HIV activity (in words)” value (HIV-1 SG3.1) was “inactive; also recorded: total loss of antiviral activity” and the inhibition at 25 µg/mL (HIV-1 SG3.1) was 0%. For the same compound, the melting point was 81.2 to 83.1 °C.
In the case of `Cc1ccc(COC(=O)C2=CCC3(C(=O)N4C(C(=O)OC(c5ccccc5)c5ccccc5)C(C)(C)SC43)C2C(=O)c2ccccc2)cc1` (stereo not shown) [Compound 9j, (1’R,2’R)-Benzhydryl spiro[(2-benzoyl-3-(4-methylbenzyloxycarbonyl)cyclopent-3-ene)-1’,6-penicillanate]], the CC50 [1] is reported as 60 µM, the “Therapeutic index (CC50/IC50)” value (HIV-1 SG3.1) is reported as 674.49 and the IC50 (HIV-1 SG3.1) is reported as 0.089 µM. The IC90 (HIV-1 SG3.1) was 0.209 µM, the inhibition at 25 µg/mL (HIV-1 SG3.1) was 93% and the melting point was 59 to 60.8 °C.
In the case of `CC1(C)SC2N(C(=O)C23CC=C(C(=O)OCc2ccc(Cl)cc2)C3C(=O)c2ccccc2)C1C(=O)OC(c1ccccc1)c1ccccc1` (stereo not shown) [Compound 9k, (1’R,2’R)-Benzhydryl spiro[(2-benzoyl-3-(4-chlorobenzyloxycarbonyl)cyclopent-3-ene)-1’,6-penicillanate]], the CC50 [1] is reported as 54.1 µM, the “Therapeutic index (CC50/IC50)” value (HIV-1 SG3.1) is reported as 148.11 and the IC50 (HIV-1 SG3.1) is reported as 0.366 µM. The inhibition at 25 µg/mL (HIV-1 SG3.1) was 84% and the melting point was 49.8 to 51.5 °C.
In the case of `CC1(C)SC2N(C(=O)C23CC=C(C(=O)OCc2ccc(F)cc2)C3C(=O)c2ccccc2)C1C(=O)OC(c1ccccc1)c1ccccc1` (stereo not shown) [Compound 9l, (1’R,2’R)-Benzhydryl spiro[(2-benzoyl-3-(4-fluorobenzyloxycarbonyl)cyclopent-3-ene)-1’,6-penicillanate]], the CC50 [1] is reported as 55.8 µM, the “Therapeutic index (CC50/IC50)” value (HIV-1 SG3.1) is reported as 502.97 and the IC50 (HIV-1 SG3.1) is reported as 0.111 µM. For the same compound, the IC90 (HIV-1 SG3.1) was 0.221 µM, the inhibition at 25 µg/mL (HIV-1 SG3.1) was 100% and the melting point was 67.2 to 69.3 °C.
For `C#CCOC(=O)C1=CCC2(C(=O)N3C(C(=O)OC(c4ccccc4)c4ccccc4)C(C)(C)SC32)C1C(=O)c1ccccc1` (stereo not shown) [Compound 9m, (1’R,2’R)-Benzhydryl spiro[(2-benzoyl-3-(prop-2-yn-1-yloxycarbonyl)cyclopent-3-ene)-1’,6-penicillanate]], the CC50 [1] was 60.1 µM, the “Therapeutic index (CC50/IC50)” value (HIV-1 SG3.1) was 296.11 and the IC50 (HIV-1 SG3.1) was 0.203 µM. The IC90 (HIV-1 SG3.1) was 0.437 µM, the inhibition at 25 µg/mL (HIV-1 SG3.1) was 94% and the melting point was 62.2 to 64.8 °C.
Compound `CC(COC(=O)C1=CCC2(C(=O)N3C(C(=O)OC(c4ccccc4)c4ccccc4)C(C)(C)SC32)C1C(=O)c1ccccc1)c1ccccc1` (stereo not shown) [Compound 9o, (1’R,2’R)-Benzhydryl spiro[(2-benzoyl-3-(1-phenylpropan-2-yloxycarbonyl)cyclopent-3-ene)-1’,6-penicillanate]] has a CC50 [1] of 44.7 µM and an inhibition at 25 µg/mL (HIV-1 SG3.1) of 0%.
With `CC1(C)SC2N(C(=O)C23CC=C(C(=O)OCc2ccccc2)C3C(=O)c2ccc(Cl)cc2)C1C(=O)OC(c1ccccc1)c1ccccc1` (stereo not shown) [Compound 12b, (1’R,2’R)-Benzhydryl spiro[(2-(4-chlorobenzoyl)-3-benzyloxycarbonylcyclopent-3-ene)-1’,6-penicillanate]] the CC50 [1] was 56 µM, the “Therapeutic index (CC50/IC50)” value (HIV-1 SG3.1) was 888.73 and the IC50 (HIV-1 SG3.1) was 0.063 µM. For the same compound, the IC90 (HIV-1 SG3.1) was 0.104 µM, the inhibition at 25 µg/mL (HIV-1 SG3.1) was 92% and the melting point was 145.2 to 146.5 °C.
With `CC1(C)SC2N(C(=O)C23CC=C(C(=O)OCc2ccccc2)C3C(=O)c2ccc([N+](=O)[O-])cc2)C1C(=O)OC(c1ccccc1)c1ccccc1` (stereo not shown) [Compound 12d, (1’R,2’R)-Benzhydryl spiro[(2-(4-nitrobenzoyl)-3-benzyloxycarbonylcyclopent-3-ene)-1’,6-penicillanate]] the CC50 [1] was 53 µM, the “Therapeutic index (CC50/IC50)” value (HIV-1 SG3.1) was 297.75 and the IC50 (HIV-1 SG3.1) was 0.178 µM. It also gave an IC90 (HIV-1 SG3.1) of 0.413 µM, an inhibition at 25 µg/mL (HIV-1 SG3.1) of 80% and a melting point of 122 to 123.7 °C.
With `CC1(C)SC2N(C(=O)C23CC=C(C(=O)OCc2ccccc2)C3C(=O)c2ccc(C(F)(F)F)cc2)C1C(=O)OC(c1ccccc1)c1ccccc1` (stereo not shown) [Compound 12e, (1’R,2’R)-Benzhydryl spiro[(2-(4-trifluoromethylbenzoyl)-3-benzyloxycarbonylcyclopent-3-ene)-1’,6-penicillanate]] the CC50 [1] was 64.4 µM, the “Therapeutic index (CC50/IC50)” value (HIV-1 SG3.1) was 49.39 and the IC50 (HIV-1 SG3.1) was 1.3 µM. It also gave an IC90 (HIV-1 SG3.1) of 1.5 µM, an inhibition at 25 µg/mL (HIV-1 SG3.1) of 76% and a melting point of 134.1 to 135.5 °C.
In the case of `CC1(C)SC2N(C(=O)C23CC=C(C(=O)OCc2ccccc2)C3C(=O)c2cc(F)cc(F)c2)C1C(=O)OC(c1ccccc1)c1ccccc1` (stereo not shown) [Compound 12f, (1’R,2’R)-Benzhydryl spiro[(2-(3,5-difluorobenzoyl)-3-benzyloxycarbonylcyclopent-3-ene)-1’,6-penicillanate]], the CC50 [1] is reported as 70.1 µM, the “Therapeutic index (CC50/IC50)” value (HIV-1 SG3.1) is reported as 531.34 and the IC50 (HIV-1 SG3.1) is reported as 0.132 µM. It also gave an IC90 (HIV-1 SG3.1) of 0.585 µM, an inhibition at 25 µg/mL (HIV-1 SG3.1) of 88% and a melting point of 69.5 to 71.5 °C.
`CC1(C)SC2N(C(=O)C23CC=C(C(=O)OCc2ccccc2)C3C(=O)c2ccc3ccccc3c2)C1C(=O)OC(c1ccccc1)c1ccccc1` (stereo not shown) [Compound 12h, (1’R,2’R)-Benzhydryl spiro[(2-naphthoyl-3-benzyloxycarbonylcyclopent-3-ene)-1’,6-penicillanate]] showed a CC50 [1] of 73.6 µM, an inhibition at 25 µg/mL (HIV-1 SG3.1) of 0% and a melting point of 81.5 to 83.5 °C.
Work on `Cc1ccc(COC(=O)C2=CCC3(C(=O)N4C(C(=O)OC(c5ccccc5)c5ccccc5)C(C)(C)SC43)C2C(=O)c2ccc(F)cc2)cc1` (stereo not shown) [Compound 14b, (1’R,2’R)-Benzhydryl spiro[(2-(4-fluorobenzoyl)-3-(4-methylbenzyloxycarbonyl)cyclopent-3-ene)-1’,6-penicillanate]] yielded a CC50 [1] of 78.3 µM, an IC50 (HIV-1 SG3.1) of 0.146 µM and an IC90 (HIV-1 SG3.1) of 0.338 µM. It also gave an inhibition at 25 µg/mL (HIV-1 SG3.1) of 95%.
